Results taken from patent US20250122207A1, “AP2 ASSOCIATED KINASE 1 INHIBITORS AND USES THEREOF” (Satellos Bioscience Inc., priority 2023, published 2025).

Experiments:
[1] = biological target: T1, AAK1 (amino acids T27-A365) (Homo sapiens, UniProt Q2M2I8); experiment: AAK1 pSENs assay; type: biochemical; settings: class symbols; read-out: AAK1 pSENs: EIC50
T1 construct: against AAK1 (amino acids T27-A365); 6His (N, cleaved yes)
Procedure: The recombinant proteins were independently expressed in Escherichia coli BL21(DE3) cells cultured in Luria-Bertani (LB) medium until OD600 reached 0.6-0.8, then cooled to 15° C. and supplemented with 0.5 mM isopropyl 1-thio-D-galactopyranoside (IPTG) induce protein expression 16 h. Cells were harvested and resuspended in lysis buffer (50 mM HEPES pH 7.5, 500 mM NaCl, 5 mM imidazole, 5% glycerol, 0.5 mM Tris (2-carboxyethyl) phosphine (TCEP), cOmplete Protease Inhibitor Tablet (Roche)) and lysed by microfludics high pressure homogenizer (UH-06, Union-Biotech). Proteins were purified using […] chromatography (His FF column, Bestchrom) and eluted stepwise in binding buffer with 20-300 mM imidazole. Removal of the hexahistidine tag was performed at 4° C. overnight using recombinant TEV protease and reacted with BirA to obtain the corresponding biotinylated-AAK1, BIKE or GAK proteins. Further separated in the reverse Strep column (Strep-Tactin® XT, IBA). The Biotin elution sample was collected containing untagged biotinylated protein was then purified by Ion-exchange chromatography (Mono Q 10/100 GL, Cytiva) and Size-exclusion chromatography (HiLoad 16/600 Superdex 200 pg, Cytiva). The pure protein was stored in a storage buffer 50 mM HEPES (pH 7.5), 300 mM NaCl, 5% glycerol at −80° C. Protein were characterized by SDS-PAGE, LC-MS and aSEC.
This example describes one illustrative method for determining the IC50 of the compounds of the present invention against AAK1 (amino acids T27-A365). AAK1 protein was dissolved at 20 nM in 1× enzyme solution (50 mM HEPES pH7.5, 10 mM MgCl2, 1 mM DTT, 1% glycerol, 0.5 mM EGTA, 0.01% Briji35, 0.02% BSA) and 12.5 ul was incubated with 250 nl DMSO or 250 nl compound in DMSO at 25° C. for 15 min. The reaction was started by addition of 12.5 ul of 30 uM AQT0759 (Assayquant, CSKS-AQT0759B) and 70 uM ATP which were diluted in 1× substrate dilution buffer (50 mM HEPES pH7.5, 10 mM MgCl2, 1 mM DTT, 1% glycerol, 0.5 mM EGTA, 0.01% Briji35).

AAK1 = AAK1 (Homo sapiens, UniProt Q2M2I8); experiment: pAP2M1 cell-based assay (in-cell Western); settings: Hela cells co-transfected with AP2M1 and AAK1, 3 hr treatment; class symbols; read-out: AAK1 In-cell Western: IC50
Chain of AAK1 (Q2M2I8 whole entry): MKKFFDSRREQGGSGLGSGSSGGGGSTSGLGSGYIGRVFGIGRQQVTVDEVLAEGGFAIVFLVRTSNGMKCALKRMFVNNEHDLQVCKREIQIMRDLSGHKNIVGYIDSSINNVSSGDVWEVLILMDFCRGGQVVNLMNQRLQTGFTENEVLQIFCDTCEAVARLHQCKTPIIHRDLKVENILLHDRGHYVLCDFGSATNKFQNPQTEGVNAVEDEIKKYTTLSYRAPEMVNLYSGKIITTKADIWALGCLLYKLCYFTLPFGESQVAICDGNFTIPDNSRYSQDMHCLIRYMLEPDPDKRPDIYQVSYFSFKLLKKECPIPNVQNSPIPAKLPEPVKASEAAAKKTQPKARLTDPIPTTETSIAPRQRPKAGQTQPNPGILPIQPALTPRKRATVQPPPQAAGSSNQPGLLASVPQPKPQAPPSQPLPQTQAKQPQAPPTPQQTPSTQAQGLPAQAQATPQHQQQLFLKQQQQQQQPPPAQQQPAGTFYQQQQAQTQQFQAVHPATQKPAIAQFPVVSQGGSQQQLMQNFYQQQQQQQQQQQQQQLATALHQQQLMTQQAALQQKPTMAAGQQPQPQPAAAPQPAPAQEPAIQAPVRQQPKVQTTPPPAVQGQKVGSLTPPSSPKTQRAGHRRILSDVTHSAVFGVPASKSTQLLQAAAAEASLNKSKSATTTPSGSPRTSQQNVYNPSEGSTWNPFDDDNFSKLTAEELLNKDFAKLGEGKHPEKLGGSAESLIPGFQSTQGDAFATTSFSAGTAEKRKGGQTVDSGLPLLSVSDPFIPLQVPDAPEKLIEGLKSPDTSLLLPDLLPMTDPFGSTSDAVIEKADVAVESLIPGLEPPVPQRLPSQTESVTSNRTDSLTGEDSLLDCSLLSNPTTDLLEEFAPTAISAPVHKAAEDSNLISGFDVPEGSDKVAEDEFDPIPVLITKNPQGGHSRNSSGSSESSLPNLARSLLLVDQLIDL
Excerpt: pAP2M1 Cell-Based Assay (in-Cell Western):
The plate was read on Licor Odyssey CLx imaging system (LICOR) to acquire fluorescence intensity at 700 channel and 800 channel.
Data analysis: Fluorescence intensity at 700 channel served as internal standard and 800 channel were normalized with 700 channel.

T1 sequence (Q2M2I8 27-365): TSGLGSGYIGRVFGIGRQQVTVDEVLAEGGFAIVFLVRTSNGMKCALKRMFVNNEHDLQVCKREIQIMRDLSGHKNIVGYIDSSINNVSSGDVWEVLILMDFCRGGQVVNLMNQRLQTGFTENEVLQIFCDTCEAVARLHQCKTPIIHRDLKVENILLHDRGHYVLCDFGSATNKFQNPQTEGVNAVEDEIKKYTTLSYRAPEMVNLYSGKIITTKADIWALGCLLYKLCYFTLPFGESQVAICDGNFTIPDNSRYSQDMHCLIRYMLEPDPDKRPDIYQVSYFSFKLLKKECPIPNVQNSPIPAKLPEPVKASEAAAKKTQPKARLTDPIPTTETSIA

## O=C1NCC[C@@H]1OC(=O)N1CCN(c2ccn3ncc(-c4cccnc4OC4CC4)c3n2)CC1 [Compound I-24, [(3S)-2-Oxopyrrolidin-3-yl]-4-[3-[2-(cyclopropoxy)-3-pyridyl]pyrazolo[1,5-a]pyrimidin-5-yl]piperazine-1-carboxylate]
[1]
  IC50: 51 to 150 nM
AAK1
  IC50: > 1500 nM

## C[C@H]1CN(c2ccn3ncc(-c4cccnc4OC4CC4)c3n2)CCN1C(=O)O[C@@H]1CNC(=O)C1 [Compound I-40, [(3S)-5-Oxopyrrolidin-3-yl](2S)-4-[3-[2-(cyclopropoxy)-3-pyridyl]pyrazolo[1,5-a]pyrimidin-5-yl]-2-methyl-piperazine-1-carboxylate]
[1]
  IC50: 151 to 500 nM
AAK1
  IC50: > 1500 nM

## COC(=O)[C@@H]1CN(c2ccn3ncc(-c4cccnc4OC4CC4)c3n2)CCN1C(=O)O[C@@H]1CNC(=O)C1 [Compound I-41-5, 2-Methyl 1-((S)-5-oxopyrrolidin-3-yl) (S)-4-(3-(2-cyclopropoxypyridin-3-yl)pyrazolo[1,5-a]pyrimidin-5-yl)piperazine-1,2-dicarboxylate]
[1]
  IC50: 151 to 500 nM
AAK1
  IC50: > 1500 nM

## Cc1nn2ccc(N3CCN(C(=O)O[C@H]4CC(=O)N(C)C4)CC3)nc2c1-c1cccnc1OC1CC1 [Compound I-108, [(3S)-1-methyl-5-oxo-pyrrolidin-3-yl]-4-[3-[2-(cyclopropoxy)-3-pyridyl]-2-methyl-pyrazolo[1,5-a]pyrimidin-5-yl]piperazine-1-carboxylate]
[1]
  IC50: > 1500 nM
AAK1
  IC50: > 1500 nM

## O=C1NCC[C@H]1OC(=O)N1CCN(c2ccn3ncc(-c4cccnc4OC4CC4)c3n2)CC1 [Compound I-23, [(3R)-2-oxopyrrolidin-3-yl]-4-[3-[2-(cyclopropoxy)-3-pyridyl]pyrazolo[1,5-a]pyrimidin-5-yl]piperazine-1-carboxylate]
[1]
  IC50: 51 to 150 nM
AAK1
  IC50: > 1500 nM

## CN1C[C@@H](OC(=O)N2CCN(c3nc4c(-c5cccnc5OC5CCCCC5)cnn4cc3F)CC2)CC1=O [Compound I-123, [(3S)-1-methyl-5-oxo-pyrrolidin-3-yl]-4-[3-[2-(cyclohexoxy)-3-pyridyl]-6-fluoro-pyrazolo[1,5-a]pyrimidin-5-yl]piperazine-1-carboxylate]
[1]
  IC50: 151 to 500 nM
AAK1
  IC50: > 1500 nM

## CC(C)Nc1ncccc1-c1cnn2ccc(N3CCN(C(=O)O[C@@H]4CNC(=O)C4)CC3)nc12 [Compound I-47, [(3S)-5-oxopyrrolidin-3-yl]4-[3-[2-(isopropylamino)-3-pyridyl]pyrazolo[1,5-a]pyrimidin-5-yl]piperazine-1-carboxylate]
[1]
  IC50: > 1500 nM
AAK1
  IC50: > 1500 nM

## COC(=O)N1CC(Oc2ncccc2-c2cnn3ccc(N4CCN(C(=O)O[C@@H]5CC(=O)N(C6COC6)C5)CC4)nc23)C1 [Compound I-85, [(3R)-1-(oxetan-3-yl)-5-oxo-pyrrolidin-3-yl]-4-[3-[2-(1-methoxycarbonylazetidin-3-yl)oxy-3-pyridyl]pyrazolo[1,5-a]pyrimidin-5-yl]piperazine-1-carboxylate]
[1]
  IC50: 501 to 1500 nM
AAK1
  IC50: > 1500 nM

## CN1C[C@@H](OC(=O)N2CCN(c3nc4c(-c5cccnc5OC5CC5)cnn4cc3O)CC2)CC1=O [Compound I-110, [(3S)-1-methyl-5-oxo-pyrrolidin-3-yl]-4-[3-[2-(cyclopropoxy)-3-pyridyl]-6-hydroxy-pyrazolo[1,5-a]pyrimidin-5-yl]piperazine-1-carboxylate]
[1]
  IC50: > 1500 nM
AAK1
  IC50: > 1500 nM

## O=C(O[C@H]1CO[C@H]2OCC[C@H]21)N1CCN(c2ccn3ncc(-c4ccccc4OC4CC4)c3n2)CC1 [Compound I-68, [(3aS,4R,6aR)-2,3,3a,4,5,6a-hexahydrofuro[2,3-b]furan-4-yl]4-[3-[2-(cyclopropoxy)phenyl]pyrazolo[1,5-a]pyrimidin-5-yl]piperazine-1-carboxylate]
[1]
  IC50: 51 to 150 nM
AAK1
  IC50: 501 to 1500 nM

## O=C(O[C@H]1CO[C@H]2OCC[C@H]21)N1CCN(c2ccn3ncc(-c4ccncn4)c3n2)CC1 [Compound I-67, [(3aS,4R,6aR)-2,3,3a,4,5,6a-hexahydrofuro[2,3-b]furan-4-yl]4-(3-pyrimidin-4-ylpyrazolo[1,5-a]pyrimidin-5-yl)piperazine-1-carboxylate]
[1]
  IC50: 501 to 1500 nM
AAK1
  IC50: > 1500 nM

## C[C@@]1(OC(=O)N[C@@H]2CCN(c3ccn4ncc(-c5cccnc5OC5CC5)c4n3)C2)CCNC1 [Compound I-56, (R)-3-methylpyrrolidin-3-yl ((R)-1-(3-(2-cyclopropoxypyridin-3-yl)pyrazolo[1,5-a]pyrimidin-5-yl)pyrrolidin-3-yl)carbamate]
[1]
  IC50: 151 to 500 nM
AAK1
  IC50: > 1500 nM

## COc1cn2ncc(-c3cccnc3OC3CC3)c2nc1N1CCN(C(=O)O[C@H]2CC(=O)N(C)C2)CC1 [Compound I-110-9, [(3S)-1-methyl-5-oxo-pyrrolidin-3-yl]-4-[3-[2-(cyclopropoxy)-3-pyridyl]-6-methoxy-pyrazolo[1,5-a]pyrimidin-5-yl]piperazine-1-carboxylate]
[1]
  IC50: > 1500 nM
AAK1
  IC50: > 1500 nM

## CC1(OC(=O)N2CCN(c3ccn4ncc(-c5cccnc5OCC5CCC5)c4n3)CC2)COC1 [Compound I-19, 3-Methyloxetan-3-yl 4-(3-(2-(cyclobutylmethoxy)pyridin-3-yl)pyrazolo[1,5-a]pyrimidin-5-yl)piperazine-1-carboxylate]
[1]
  IC50: 151 to 500 nM
AAK1
  IC50: > 1500 nM

## NC(=O)[C@@H]1CN(c2ccn3ncc(-c4cccnc4OC4CC4)c3n2)CCN1C(=O)O[C@@H]1CNC(=O)C1 [Compound I-41-6, (S)-5-Oxopyrrolidin-3-yl-(S)-2-carbamoyl-4-(3-(2-cyclopropoxypyridin-3-yl)pyrazolo[1,5-a]pyrimidin-5-yl)piperazine-1-carboxylate]
[1]
  IC50: 151 to 500 nM
AAK1
  IC50: > 1500 nM

## COC(=O)N1CC(Oc2ncccc2-c2cnn3ccc(N4CCN(C(=O)O[C@@H]5CC(=O)N(CCOCc6ccccc6)C5)CC4)nc23)C1 [Compound I-84-6, [(3R)-1-(2-benzyloxyethyl)-5-oxo-pyrrolidin-3-yl]-4-[3-[2-(1-methoxycarbonyl-azetidin-3-yl)oxy-3-pyridyl]pyrazolo[1,5-a]pyrimidin-5-yl]piperazine-1-carboxylate]
[1]
  IC50: 151 to 500 nM
AAK1
  IC50: > 1500 nM

## COC(=O)N1CC(Oc2ncccc2-c2cnn3ccc(N4CCN(C(=O)O[C@@H]5CC(=O)N(C)C5)CC4)nc23)C1 [Compound I-83, [(3R)-1-methyl-5-oxo-pyrrolidin-3-yl]4-[3-[2-(1-methoxycarbonylazetidin-3-yl)oxy-3-pyridyl]pyrazolo[1,5-a]pyrimidin-5-yl]piperazine-1-carboxylate]
[1]
  IC50: 1 to 50 nM
AAK1
  IC50: 501 to 1500 nM

## CN(CCN1C[C@@H](OC(=O)N2CCN(c3ccn4ncc(-c5cccnc5OC5CC5)c4n3)CC2)CC1=O)C(=O)OC(C)(C)C [Compound I-35, (S)-1-(2-((tert-butoxycarbonyl)(methyl)amino)ethyl)-5-oxopyrrolidin-3-yl-4-(3-(2-cyclopropoxypyridin-3-yl)pyrazolo[1,5-a]pyrimidin-5-yl)piperazine-1-carboxylate]
[1]
  IC50: 51 to 150 nM
AAK1
  IC50: > 1500 nM

## O=C1C[C@H](OC(=O)N2CCN(c3ccn4ncc(-c5cccnc5NC5CNC5)c4n3)CC2)CN1 [Compound I-49, (S)-5-oxopyrrolidin-3-yl4-(3-(2-(azetidin-3-ylamino)pyridin-3-yl)pyrazolo[1,5-a]pyrimidin-5-yl)piperazine-1-carboxylate]
[1]
  IC50: > 1500 nM
AAK1
  IC50: > 1500 nM

## O=C1C[C@H](OC(=O)N[C@H]2CCN(c3ccn4ncc(-c5cccnc5OC5CC5)c4n3)C2)CN1 [Compound I-55, (S)-5-oxopyrrolidin-3-yl ((S)-1-(3-(2-cyclopropoxypyridin-3-yl)pyrazolo[1,5-a]pyrimidin-5-yl)pyrrolidin-3-yl)carbamate]
[1]
  IC50: 151 to 500 nM
AAK1
  IC50: > 1500 nM

## N#C[C@@H]1CN(c2ccn3ncc(-c4cccnc4OC4CC4)c3n2)CCN1C(=O)O[C@@H]1CNC(=O)C1 [Compound I-41, (S)-5-Oxopyrrolidin-3-yl (S)-2-cyano-4-(3-(2-cyclopropoxypyridin-3-yl)pyrazolo[1,5-a]pyrimidin-5-yl)piperazine-1-carboxylate]
[1]
  IC50: 151 to 500 nM
AAK1
  IC50: > 1500 nM
